Reference: patent publication US8022056B2, “Compositions and methods for the treatment of cancer” (Tautatis, Inc, priority 2006, dated 2011)
pIC50: −log10 of the molar value. Where “and” joins values, the source holds several entries; their conditions need not be identical. Equal values may be shown once. Read-outs that look alike come from different tables or passages of the source.

Assays:
[1] = target: T1, ABC-B1 (glycoprotein gp170) (Homo sapiens, UniProt P08183); test: Competition with MDR-driven efflux of calcein-AM in Kb-V1 cells (FACS); assay type: cell-based
T1 construct: Kb-V1 cells expressing high levels of gp170; endogenous in cells; host or cells: Kb-V1 cells
T1 sequence (P08183 whole entry): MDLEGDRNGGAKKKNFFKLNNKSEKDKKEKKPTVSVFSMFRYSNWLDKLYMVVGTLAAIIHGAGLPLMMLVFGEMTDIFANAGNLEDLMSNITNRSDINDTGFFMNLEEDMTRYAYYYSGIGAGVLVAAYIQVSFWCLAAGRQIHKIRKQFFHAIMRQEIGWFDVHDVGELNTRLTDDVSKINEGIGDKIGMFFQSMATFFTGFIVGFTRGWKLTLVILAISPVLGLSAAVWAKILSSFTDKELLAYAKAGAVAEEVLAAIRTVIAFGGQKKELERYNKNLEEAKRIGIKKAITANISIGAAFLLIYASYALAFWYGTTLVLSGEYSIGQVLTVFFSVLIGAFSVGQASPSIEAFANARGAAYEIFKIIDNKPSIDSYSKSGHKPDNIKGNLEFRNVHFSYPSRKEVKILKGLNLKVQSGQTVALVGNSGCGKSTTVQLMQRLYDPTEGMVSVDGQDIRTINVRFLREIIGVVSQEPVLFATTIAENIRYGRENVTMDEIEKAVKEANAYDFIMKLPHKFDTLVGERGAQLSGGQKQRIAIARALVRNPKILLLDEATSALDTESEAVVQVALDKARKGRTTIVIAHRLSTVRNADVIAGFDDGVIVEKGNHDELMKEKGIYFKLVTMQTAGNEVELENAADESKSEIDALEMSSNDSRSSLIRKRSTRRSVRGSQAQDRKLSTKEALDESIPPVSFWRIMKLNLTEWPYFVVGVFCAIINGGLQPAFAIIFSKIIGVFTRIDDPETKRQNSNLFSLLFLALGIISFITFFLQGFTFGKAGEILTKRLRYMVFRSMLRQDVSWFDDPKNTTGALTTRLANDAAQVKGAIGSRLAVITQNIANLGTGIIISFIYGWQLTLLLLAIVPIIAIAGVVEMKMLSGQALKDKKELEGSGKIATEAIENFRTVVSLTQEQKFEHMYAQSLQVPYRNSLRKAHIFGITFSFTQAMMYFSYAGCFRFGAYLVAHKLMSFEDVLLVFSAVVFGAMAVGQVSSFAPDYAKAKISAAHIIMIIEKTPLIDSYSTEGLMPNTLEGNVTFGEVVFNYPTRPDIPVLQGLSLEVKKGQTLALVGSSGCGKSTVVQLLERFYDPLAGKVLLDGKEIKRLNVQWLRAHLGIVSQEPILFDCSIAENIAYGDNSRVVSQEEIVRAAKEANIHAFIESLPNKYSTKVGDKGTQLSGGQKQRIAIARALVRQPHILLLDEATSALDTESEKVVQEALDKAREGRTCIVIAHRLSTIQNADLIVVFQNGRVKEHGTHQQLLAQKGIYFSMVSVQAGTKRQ
From the text: (§1) FIG. 6 compares the recognition of compound 1 and of the compound 6 by two frequently involved multi-drug resistance proteins ABC-B1 (glycoprotein gp170) (A), and ABC-G2 (breast cancer resistance protein BCRP) (B). Measurements were based on competition with the MDR-driven efflux of calcein-AM in Kb-V1 cells expressing high levels of gp170, or competition with the efflux of mitoxandrone in MCF-7 cells by the respective compounds within their effective concentration range. Uptake of fluorescent reporter compounds by competition with 1 or 6 was assessed by FACS as described in Mueller et al., Cancer Chemother. Pharmacol. 59, 157-164 (2007).

[2] = target: T2, ABC-G2 (breast cancer resistance protein BCRP) (Homo sapiens, UniProt Q9UNQ0); test: Competition with efflux of mitoxandrone in MCF-7 cells (FACS); assay type: cell-based
T2 construct: endogenous in cells; host or cells: MCF-7 cells
T2 sequence (Q9UNQ0 whole entry): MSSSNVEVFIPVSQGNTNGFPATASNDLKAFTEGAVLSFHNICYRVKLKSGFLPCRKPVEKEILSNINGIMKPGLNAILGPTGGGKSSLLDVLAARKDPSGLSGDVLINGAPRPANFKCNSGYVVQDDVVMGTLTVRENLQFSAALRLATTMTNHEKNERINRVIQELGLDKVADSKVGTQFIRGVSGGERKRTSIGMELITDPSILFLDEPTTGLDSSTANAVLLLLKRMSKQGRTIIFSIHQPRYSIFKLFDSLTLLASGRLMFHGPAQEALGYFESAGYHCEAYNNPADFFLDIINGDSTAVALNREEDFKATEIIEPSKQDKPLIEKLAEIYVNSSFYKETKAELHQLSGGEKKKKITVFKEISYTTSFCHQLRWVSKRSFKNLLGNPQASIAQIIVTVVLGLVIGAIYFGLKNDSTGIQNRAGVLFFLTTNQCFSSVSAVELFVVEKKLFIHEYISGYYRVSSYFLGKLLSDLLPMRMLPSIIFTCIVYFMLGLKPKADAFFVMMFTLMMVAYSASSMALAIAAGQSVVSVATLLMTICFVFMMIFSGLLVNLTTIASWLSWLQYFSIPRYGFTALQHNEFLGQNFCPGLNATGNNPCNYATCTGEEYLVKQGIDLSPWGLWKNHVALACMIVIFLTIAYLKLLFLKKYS
From the text: as §1

[3] = target: CDK1 (Homo sapiens, UniProt P06493); test: Kinase inhibition under standard conditions, CDK1; assay type: biochemical
Sequence of CDK1 (P06493 whole entry, species assumed): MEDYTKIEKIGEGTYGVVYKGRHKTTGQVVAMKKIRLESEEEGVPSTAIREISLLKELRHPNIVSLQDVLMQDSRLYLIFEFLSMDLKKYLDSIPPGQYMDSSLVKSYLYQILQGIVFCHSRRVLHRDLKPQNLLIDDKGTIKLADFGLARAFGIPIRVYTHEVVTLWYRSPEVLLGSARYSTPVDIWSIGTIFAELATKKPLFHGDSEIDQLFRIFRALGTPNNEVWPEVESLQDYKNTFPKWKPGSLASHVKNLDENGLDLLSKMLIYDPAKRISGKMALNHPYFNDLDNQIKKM
Sequence of CDK1 (P14635 whole entry partner, species assumed): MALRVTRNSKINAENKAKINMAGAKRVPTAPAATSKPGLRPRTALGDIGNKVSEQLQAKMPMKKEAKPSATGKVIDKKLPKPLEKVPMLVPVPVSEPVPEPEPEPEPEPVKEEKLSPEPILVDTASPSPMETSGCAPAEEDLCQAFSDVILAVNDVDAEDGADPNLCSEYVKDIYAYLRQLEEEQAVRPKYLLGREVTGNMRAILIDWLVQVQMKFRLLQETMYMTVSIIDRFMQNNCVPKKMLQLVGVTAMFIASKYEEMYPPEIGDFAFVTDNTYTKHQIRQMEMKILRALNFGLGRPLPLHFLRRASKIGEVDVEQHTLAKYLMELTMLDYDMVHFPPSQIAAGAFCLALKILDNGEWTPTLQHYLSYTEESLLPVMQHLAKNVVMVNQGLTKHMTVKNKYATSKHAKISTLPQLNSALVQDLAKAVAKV

[4] = tested on: PC-3 xenograft; test: Mouse xenograft model PC-3; assay type: in vivo; conditions: Prostate, p53/PTEN; oral twice daily dosing
Protocol: The efficacy of the compound of the formula 1 was confirmed in mouse tumor xenograft models, employing the NMRI(nu/nu) strain of mice. For example, cells from the human tumor cell lines MDA-MB-231, U373, and HT29 were pre-incubated subcutaneously in several nude mice to select for the most robustly growing cell population. After having grown to a sufficient size after 2-3 weeks, a piece of about 2 mm^3 volume of the most suitable tumor was transplanted subcutaneously into the region of the thoracic mammary fat pads, an area ensuring a high degree of vascularization of the grafted tissue. […] During the course of the treatment, the weight of the animals and the size of the transplanted tumor was monitored three times a week. […] These doses are best determined separately for each individual mouse strain employed.
To establish a solid tumour 3×10^6 tumor cells suspended in 100 μl of serum free medium (RPMI) were inoculated subcutaneously into the region of the thoracic mammary fat pads of 5 Male NMRI(nu/nu) mice of 8-10 weeks of age. […] During the course of the treatment body weight changes and tumor growth were recorded three times a week. Growth curves were plotted together with standard deviations and the significance of differences was determined using an unpaired t-test in FIG. 11. […]

[5] = tested on: HT29 xenograft; test: Mouse xenograft model HT29; assay type: in vivo
Protocol: The efficacy of the compound of the formula 1 was confirmed in mouse tumor xenograft models, employing the NMRI(nu/nu) strain of mice. For example, cells from the human tumor cell lines MDA-MB-231, U373, and HT29 were pre-incubated subcutaneously in several nude mice to select for the most robustly growing cell population. After having grown to a sufficient size after 2-3 weeks, a piece of about 2 mm^3 volume of the most suitable tumor was transplanted subcutaneously into the region of the thoracic mammary fat pads, an area ensuring a high degree of vascularization of the grafted tissue. When tumors reached a diameter of about 3 mm mice were assigned to treatment groups with about equal average tumor sizes, and therapy was started. Application of the compound of the formula 1 was performed preferably by oral gavage twice daily for continuous exposure, with doses between 1 and 10 mg/kg of the compound of the formula 1 as a solid suspension in water, or in aqueous liquid formulations containing common adjuvants, like polyethylene glycols (PEG), preferentially in form of a salt with a physiologically applicable acid, including but not limited to hydrochloric acid, phosphoric acid, lactic acid, malonic acid, citric acid, etc. Other suitable adjuvants include but are not limited to polyvinyl pyrrolidone (Povidone) of varying average molecular weights. During the course of the treatment, the weight of the animals and the size of the transplanted tumor was monitored three times a week. For maximum efficacy, a daily treatment regimen was chosen at the maximally applicable dose, as defined by the absence of significant weight loss over the course of the treatment. These doses are best determined separately for each individual mouse strain employed.
To establish a solid tumour 3×10^6 tumor cells suspended in 100 μl of serum free medium (RPMI) were inoculated subcutaneously into the region of the thoracic mammary fat pads of 5 Male NMRI(nu/nu) mice of 8-10 weeks of age. After 3-4 weeks tumor bearing mice were killed by cervical dislocation and the tumor of one selected donor mouse was excised under sterile conditions. Vital tumor regions were cut into 2 mm^3 pieces, picked up by a trocar (13 ga), and transplanted subcutaneously into NMRI(nu/nu) of the same stock. The tumor grade of the transplanted tissue was checked by routine histopathology (HE staining). Tumor growth and body weight were registered weekly during tumor establishment. When subcutaneous tumors reached diameters of about 3 mm the animals were randomly assigned to a treatment and a vehicle control group, each consisting of 10-12 animals, and a therapeutic regimen was started comprising twice daily applications by oral gavage of 2.5 mg/kg of compound 1 in a vehicle of 50 mM (−)-lactic acid in 50% polyethylene glycol 400. During the course of the treatment body weight changes and tumor growth were recorded three times a week. Growth curves were plotted together with standard deviations and the significance of differences was determined using an unpaired t-test in FIG. 11. In untreated mice tumor areas had grown after 9 days by about 150%, while in the treated group average tumor areas had grown only by about 50% (P=0.012).

[6] = tested on: NCI-60 panel cell lines; test: NCI-60 panel growth inhibition screen; assay type: cell-based; conditions: for GI50: nominal concentration
From the text: FIGS. 7a-h show the inhibitory potencies of compound 1 in the cell lines of the NCI panel from various cancers. The growth of cells treated with various concentrations of compound 1 was expressed in reference to untreated controls (100%) after 48 hr exposure. Negative growth values represent cell death. Actual concentrations of compound 1 are about two times lower than nominal due to well binding in the 96-well plate format.
FIG. 8 represents the GI50 (50% growth inhibition, cross-hatch bars) and TGI (total growth inhibition, solid bars) values of all cells in the NCI-60 panel in relation to the attainable free mouse plasma concentration of orally applied compound 1, corrected for the reduction in actual inhibitor concentration by well binding. The oncogenic mutation spectrum of the cell lines is presented at the bottom.
To further exemplify the breadth of anti-tumor activity of compounds 1-4 the NCI-60 panel was screened with compound 1. The spectrum of verified oncogenic driver mutations in these cell lines was recently elucidated to encompass mutations in raf, ras, CDKN2A (cdk inhibitor), p53, PI3K, PTEN, EGFR, APC, FLT3, RB1 among others. Cell lines generally have several of these mutations representative of stage III and IV cancers [Ikediobi et al., Mol. Cancer. Ther. 5, 2606-2612 (2006)]. […] The average concentration for total growth inhibition (TGI) was thus at 200 nM, i.e. about 10-times GI50. At sustained free plasma concentrations in vivo of about 200 nM, that can be achieved with practical forms of oral dosing and in the absence of special formulations, all cell lines would be inhibited by more than 50% without exception, and more than half would show no growth at all or would be killed (FIG. 8).

[7] = target: ERK2 (Homo sapiens, UniProt P28482); test: Kinase inhibition under standard conditions, ERK2; assay type: biochemical
Sequence of ERK2 (P28482 whole entry, species assumed): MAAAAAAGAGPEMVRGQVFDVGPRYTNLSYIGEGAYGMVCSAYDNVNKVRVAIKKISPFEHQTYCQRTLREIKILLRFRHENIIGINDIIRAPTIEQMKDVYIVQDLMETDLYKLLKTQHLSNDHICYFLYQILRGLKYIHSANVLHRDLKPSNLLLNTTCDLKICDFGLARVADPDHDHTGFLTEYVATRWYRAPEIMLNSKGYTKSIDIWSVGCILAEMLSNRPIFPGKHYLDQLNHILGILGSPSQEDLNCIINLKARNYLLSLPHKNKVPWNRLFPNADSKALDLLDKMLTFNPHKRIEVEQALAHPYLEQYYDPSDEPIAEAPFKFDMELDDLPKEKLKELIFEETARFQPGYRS

[8] = Colon, Raf/PI3K/p53/APC, 2.5 mg/kg p.o. twice daily, 30 days

Structure (SMILES): CNC(=O)[C@@]1(N)C[C@H]2O[C@]1(C)n1c3ccccc3c3c4c(c5c6ccccc6n2c5c31)C(=O)NC4 [Compound 1]
- separation of anti-proliferative potency range from uptake concentration for efflux transporter, versus compound 6 [1]: more clearly separated
- separation of anti-proliferative potency range from uptake concentration for efflux transporter, versus compound 6 [2]: more clearly separated
- pIC50 [3]: 7.37
- Mean % Inhibition [4]: 68%
- N tumors with no/neg. growth [4]: 2 of 11
- signs of organ toxicity in heart, lung, kidney, liver, duodenum, and colon ([5]; 30 days of continuous treatment, all 11 animals): complete absence of any signs of organ toxicity
- effect on body weight ([5]; 30 days, 2.5 mg/kg p.o. twice daily): absence of any significant effect on body weight
- irritation in the mucosal layers of duodenum and colon tissues ([5]; 30 days, oral route): absence of any signs of irritation
- Mean % Inhibition [5, 8]: 70%
- N tumors with no/neg. growth [5, 8]: 2 out of 10 and 2 of 11
- growth of average tumor areas in treated group ([5]; after 9 days, 2.5 mg/kg p.o. twice daily): about 50%
- average concentration for total growth inhibition (TGI) ([6]; 48 hr exposure): 200 nM
- cell kill of HT29 cell line in vitro ([6]; HT29, highest exposures): cannot be killed
- anti-proliferative activity across panel ([6]; lung, colon, brain, skin, ovarian, kidney, prostate, breast cancer lines): Significant anti-proliferative activity was seen in all cell lines
- GI50 ([6]; 48 hr exposure, read-out: GI50 potency range across cell lines): ≤ 150 nM
- GI50 ([6]; 48 hr exposure, read-out: average 50% growth inhibition (GI50) across all cell lines): 32 nM
- pIC50 [7]: 7.19
